For this assay, the target named is Seed linoleate 13S-lipoxygenase-1 (Glycine max) (UniProt P08170). The experiment in a line: Inhibition of soybean lipoxygenase at by UV spectrophotometry.
Seed linoleate 13S-lipoxygenase-1 (Glycine max), sequence (P08170 whole entry, looked up): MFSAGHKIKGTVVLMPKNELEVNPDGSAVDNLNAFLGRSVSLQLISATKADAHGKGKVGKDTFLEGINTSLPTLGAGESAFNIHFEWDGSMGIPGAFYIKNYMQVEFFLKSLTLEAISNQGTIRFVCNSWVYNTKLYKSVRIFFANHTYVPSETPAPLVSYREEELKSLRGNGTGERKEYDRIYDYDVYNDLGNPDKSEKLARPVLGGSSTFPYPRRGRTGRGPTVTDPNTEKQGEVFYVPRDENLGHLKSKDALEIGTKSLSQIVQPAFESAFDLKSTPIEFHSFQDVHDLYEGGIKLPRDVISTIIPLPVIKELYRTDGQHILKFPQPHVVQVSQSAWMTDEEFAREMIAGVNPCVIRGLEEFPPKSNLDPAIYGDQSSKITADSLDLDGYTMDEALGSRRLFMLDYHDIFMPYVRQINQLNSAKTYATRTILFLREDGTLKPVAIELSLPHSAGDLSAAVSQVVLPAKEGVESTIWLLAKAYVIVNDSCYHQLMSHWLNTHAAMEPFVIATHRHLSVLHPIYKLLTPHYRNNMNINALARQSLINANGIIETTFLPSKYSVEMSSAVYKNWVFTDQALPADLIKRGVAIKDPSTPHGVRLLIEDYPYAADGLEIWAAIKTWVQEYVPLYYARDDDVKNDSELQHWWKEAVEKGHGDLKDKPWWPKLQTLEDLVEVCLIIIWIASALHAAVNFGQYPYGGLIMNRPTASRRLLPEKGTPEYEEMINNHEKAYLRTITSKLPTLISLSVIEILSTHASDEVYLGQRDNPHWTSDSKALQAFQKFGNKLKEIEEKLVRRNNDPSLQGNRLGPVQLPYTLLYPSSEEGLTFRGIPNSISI
In the case of `Clc1ccc(Cc2noc(NC3CCCCC3)n2)cc1` [3-(4-Chlorobenzyl)-N-cyclohexyl-1,2,4-oxadiazol-5-amine], the IC50 was found to be 25 µM.

`CC(C)Nc1nc(Cc2ccc(Cl)cc2)no1` [3-(4-Chlorobenzyl)-N-isopropyl-1,2,4-oxadiazol-5-amine] returned an IC50 of 100 µM. Compared with the last compound, the IC50 is about 4-fold higher.

Regarding `CC(C)Nc1nc(C2CCCCC2)no1` [3-Cyclohexyl-N-isopropyl-1,2,4-oxadiazol-5-amine], 100 µM corresponded to half-maximal inhibition (IC50).

Turning to `Cc1ccc(-c2noc(NCCCN(C)C)n2)cc1` [N1,N1-Dimethyl-N3-(3-p-tolyl-1,2,4-oxadiazol-5-yl)propane-1,3-diamine], the IC50 worked out at 25 µM.

Take `COc1ccc(C(=N)NO)cc1` [N'-hydroxy-4-methoxybenzimidamide]: half-maximal inhibition (IC50) was put at 55 µM. This IC50 is about 2.2-fold higher than that of the compound before.

On to `Cc1ccc(C(=N)NO)cc1` [N'-hydroxy-4-methylbenzimidamide], for which the IC50 is 100 µM.

`O=[N+]([O-])c1ccc(Cc2noc(NC3CCCCC3)n2)cc1` [N-Cyclohexyl-3-(4-nitrobenzyl)-1,2,4-oxadiazol-5-amine]: inhibition was half-maximal at 100 µM (IC50).

`Cc1ccc(-c2noc(NC3CCCCC3)n2)cc1` [N-Cyclohexyl-3-p-tolyl-1,2,4-oxadiazol-5-amine]: the IC50 amounted to 92 µM.

`CC(=O)N(c1nc(-c2ccc([N+](=O)[O-])cc2)no1)C1CCCCC1` [N-Cyclohexyl-N-[3-(4-nitrophenyl)-1,2,4-oxadiazol-5-yl]acetamide] showed an IC50 of 50 µM.

As to `CC(=O)N(c1nc(-c2cccc([N+](=O)[O-])c2)no1)C(C)C` [N-Isopropyl-N-[3-(3-nitrophenyl)-1,2,4-oxadiazol-5-yl]acetamide], the IC50 is 58.5 µM. The IC50 values of the last two compounds are within 1.5-fold of each other.

Compound `CC(=O)N(c1nc(Cc2ccc(Cl)cc2)no1)C1CCCCC1` [N-[3-(4-Chlorobenzyl)-1,2,4-oxadiazol-5-yl]-N-cyclohexylacetamide] yielded an IC50 of 100 µM.

As usually defined, the IC50 is the point on the concentration scale where inhibition reaches its midpoint. A high value points to lower potency.

The values above are taken from BindingDB's records for doi:10.1016/j.ejmech.2010.09.016 (Democritus University of Thrace, 2010).
